Measurements reported in patent US6046192A, “Phenylethanolaminotetralincarboxamide derivatives” (Kissei Pharmaceutical Co., Ltd., priority 1996, dated 2000).
pEC50: −log10 of the molar value.

How the values were obtained:
β2 -adrenergic receptor = target: T1, β2 -adrenergic receptor (Rattus norvegicus, UniProt P10608); experiment: Spontaneous contractions of isolated pregnant rat myometrium (β2-adrenergic receptor stimulating activity); settings: isolated pregnant rat uterus (SD, pregnancy day 21), Magnus method; read-out: EC50 value (activity to relax 50% of the spontaneous contractions of rat myometrium)
T1 construct: longitudinal uterine muscle strips (about 15 mm in length and about 5 mm in width) free from the basal plate were prepared; from tissue; host or cells: longitudinal uterine muscle strips of pregnant SD rats (pregnancy day 21)
Description: Thus, the compounds of the present invention have a markedly potent β2 -adrenergic receptor stimulating effect and therefore are remarkably useful as β2 -adrenergic receptor stimulating agents.
Action of Drugs on the Spontaneous Contractions of Isolated Pregnant Rat Myometrium
The uteri of pregnant SD rats (pregnancy day 21) were isolated and longitudinal uterine muscle strips (about 15 mm in length and about 5 mm in width) free from the basal plate were prepared. The experiment was conducted according to the Magnus method. The preparations with a tension of 1 g were exposed to Locke-Ringer solution maintained at 37° C. and gassed with a mixture of 95% of oxygen and 5% of carbon dioxide. Spontaneous contractions of myometrium were induced isometrically via a pressure transducer and recorded on a rectigram. The drug efficacy was evaluated as 50% inhibitory drug concentration (i.e., EC50 value) by comparing the total degree of uterine contraction during 5 minutes before the addition of the drug with the total degree of uterine contraction during 5 minutes after the addition of the drug.

ICR mice = experiment: Acute toxicity; format: in vivo; settings: female ICR mice, intravenous, 50 mg/kg in saline
Description: To 4 female ICR mice of 4 weeks age was administered intravenously 2-[(2S)-2-[[(2R)-2-hydroxy-2-(4-hydroxyphenyl)-ethyl]amino]-1,2,3,4-tetrahydronaphthalen-7-yloxy]-N,N-dimethylacetamide dissolved in saline at dose of 50 mg/kg. No death of animals was observed during 24 hours after the administration.

β1 -adrenergic receptor = experiment: Atrial contraction of isolated rat atrium (β1-adrenergic receptor stimulating activity); settings: isolated rat atrium (SD male), Magnus method
Description: Thus, the compounds of the present invention have a markedly weaker β1 -adrenergic receptor stimulating effect in comparison with the aforementioned β2 -adrenergic receptor stimulating effect.
Action of Drugs on the Atrial Contraction of Isolated Rat Atrium
The atria of SD male rats (350 to 400 g in body weight) were isolated and the experiment was conducted according to the Magnus method. The preparations with a tension of 1 g were exposed to Krebs-Henseleit solution maintained at 37° C. and gassed with a mixture of 95% of oxygen and 5% of carbon dioxide. The atrial contraction was induced isometrically via a pressure transducer and recorded on a rectigram. After addition of the drug, its efficacy was evaluated as drug concentration which increases 20 beats per minute of heart rate (i.e., EC20 value).

T1 sequence (P10608 whole entry): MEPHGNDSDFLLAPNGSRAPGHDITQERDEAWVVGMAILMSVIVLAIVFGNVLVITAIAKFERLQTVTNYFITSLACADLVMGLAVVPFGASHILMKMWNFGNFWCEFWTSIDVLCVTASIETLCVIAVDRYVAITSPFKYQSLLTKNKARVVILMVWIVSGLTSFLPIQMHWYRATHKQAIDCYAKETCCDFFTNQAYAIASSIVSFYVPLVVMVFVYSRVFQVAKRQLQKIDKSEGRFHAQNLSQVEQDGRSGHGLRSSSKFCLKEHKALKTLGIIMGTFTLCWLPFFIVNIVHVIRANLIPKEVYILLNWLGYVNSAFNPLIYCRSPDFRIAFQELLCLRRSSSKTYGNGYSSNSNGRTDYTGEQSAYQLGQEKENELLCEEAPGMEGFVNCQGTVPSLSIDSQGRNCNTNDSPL

Question: With `CN(C)C(=O)COc1ccc2c(c1)C[C@@H](NC[C@H](O)c1ccc(O)cc1)CC2` [2-[(2S)-2-[[(2R)-2-Hydroxy-2-(4-hydroxyphenyl)ethyl]-amino]-1,2,3,4-tetrahydronaphthalen-7-yloxy]-N,N-dimethylacetamide] as the compound, how does the pEC50 (β2 -adrenergic receptor) read?
Answer: 7.82

Question: What about the “death of animals during 24 hours after the administration” value (ICR mice) of the same compound?
Answer: No death

Question: What about the “EC20 value (activity to increase rat heart rate 20 beats per minute)” value (β1 -adrenergic receptor) of the same compound?
Answer: 1.6×10^-6 molar concentration
